Patent publication US7476741B2, “Substituted 4H-chromens, 2H-chromenes, chromans and analogs as activators of caspases and inducers of apoptosis and the use thereof” (Cytovia, Inc., priority 2002, dated 2009)

Legend:
ZR-75-1 = test: Caspase cascade activation assay (N-(Ac-DEVD)-N'-ethoxycarbonyl-R110 fluorogenic substrate) in ZR-75-1 cells; format: cell-based; conditions: ZR-75-1 human breast cancer cells, 24 h incubation; sigmoidal dose-response; read-out: ZR-75-1 EC50 (nM) (potency)
Description: (§1) Human breast cancer cell lines T-47D and ZR-75-1 were grown according to media component mixtures designated by American Type Culture Collection +10% FCS (Invitrogen Corporation), in a 5% CO2−95% humidity incubator at 37° C. T-47D and ZR-75-1 cells were maintained at a cell density between 30 and 80% confluency at a cell density of 0.1 to 0.6×10^6 cells/mL. Cells were harvested at 600×g and resuspended at 0.65×10^6 cells/mL into appropriate media +10% FCS. An aliquot of 45 μL of cells was added to a well of a 96-well microtiter plate containing 5 μL of a 10% DMSO in RPMI-1640 media solution containing 0.16 to 10 μM of 4-(3-bromo-4,5-dimethoxyphenyl)-3-cyano-4H-indolo[4,5-b]pyran (Example 1) or other test compound (0.016 to 1 μM final). An aliquot of 45 μL of cells was added to a well of a 96-well microtiter plate containing 5 μL of a 10% DMSO in RPMI-1640 media solution without test compound as the control sample. The samples were mixed by agitation and then incubated at 37° C. for 24 h in a 5% CO2-95% humidity incubator. After incubation, the samples were removed from the incubator and 50 μL of a solution containing 20 μM of N-(Ac-DEVD)-N′-ethoxycarbonyl-R110 (SEQ ID No.:1) fluorogenic substrate (Cytovia, Inc.; U.S. Pat. No. 6,335,429), 20% sucrose (Sigma), 20 mM DTT (Sigma), 200 mM NaCl (Sigma), 40 mM Na PIPES buffer pH 7.2 (Sigma), and 500 μg/mL lysolecithin (Calbiochem) was added. The samples were mixed by agitation and incubated at room temperature. Using a fluorescent plate reader (Model 1420 Wallac Instruments), an initial reading (T=0) was made approximately 1-2 min after addition of the substrate solution, employing excitation at 485 nm and emission at 530 nm, to determine the background fluorescence of the control sample. After the 3 h incubation, the samples were read for fluorescence as above (T=3 h).
(§2) The Relative Fluorescence Unit values (RFU) were used to calculate the sample readings as follows: RFU(T=3h)−Control RFU(T=0)=Net RFU(T=3h)
(§3) The activity of caspase cascade activation was determined by the ratio of the net RFU value for 4-(3-bromo-4,5-dimethoxyphenyl)-3-cyano-4H-indolo[4,5-b]pyran or other test compound to that of control samples. The EC50 (nM) was determined by a sigmoidal dose-response calculation (Prism 2.0, GraphPad Software Inc.).

T-47D = test: Caspase cascade activation assay (N-(Ac-DEVD)-N'-ethoxycarbonyl-R110 fluorogenic substrate) in T-47D cells; format: cell-based; conditions: T-47D human breast cancer cells, 24 h incubation; ratio of net RFU of compound to control
Description: as §1, §2, §3

| Compound | EC50 (ZR-75-1) [nM] | T-47D Ratio (caspase activity) (T-47D) |
| --- | --- | --- |
| COc1cc(C2=CCOc3cc(N(C)C)ccc32)cc(OC)c1OC [Example 9, 7-Dimethylamino-4-(3,4,5-trimethoxyphenyl)-2H-chromene] | 177 | 7.8 |
| COc1cc(C2CC(O)Oc3c2ccc2[nH]ccc32)cc(Br)c1OC (stereo not shown) [Example 24, 4-(3-Bromo-4,5-dimethoxyphenyl)-2-hydroxy-pyrrolo[2,3-h]chroman] | 55 | 2.5 |
